Consider 8 compounds from PubChem BioAssay (NCI).

Assay in all cases: NCI-60 cell line screen, 48 h
Assay [1] relates to SK-MEL-2 melanoma.
In assay [2] the test system is UACC-257 melanoma.
Assay [3] relates to HT29 colon.
In assay [4] the test system is TK-10 renal.
Assay [5] concerns MALME-3M melanoma.
The test system of assay [6] is HCT-116 colon.
The test system of assay [7] is NCI-H226 lung.
Assay [8] concerns CAKI-1 renal.
The test system of assay [9] is LOX IMVI melanoma.
In assay [10] the test system is SK-MEL-5 melanoma.

Several values for one entry are separate records, joined by “and”; a condition that tells them apart may be missing. Equal entries are not always repeated.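 1) Cells in 96-well plates. 2) Compound, 48 h, 5 concentrations. 3) Linear interpolation between surrounding doses. 4) Unreached endpoint = highest concentration. GI50 is the concentration that inhibits growth by half. The concentration for full growth arrest is given as TGI.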

With `COc1ccc(/C=C\c2cc(OC)c(OC)c(OC)c2)c(NS(=O)(=O)c2ccc(C(C)(C)C)cc2)c1O`, the GI50 was 1.22 µM in assay [1]; 13.2 µM in [2]; 3.51 µM in assay [3]; 1.3 µM in [4]; 12.5 µM in assay [5]; 0.365 µM in assay [6]. Moreover, the GI50 was 0.546 µM in [7], 0.0674 µM in [8], 0.667 µM in assay [9] and 0.345 µM in [10]. The TGI stood at 20.2 µM in assay [1]; 32.1 µM in assay [2]; 18.6 µM in assay [3]; 37.1 µM in assay [4]; 30.4 µM in [5]; 13.6 µM in assay [6]. Further, the TGI in [7] is 13.5 µM; in [8] it was 18.7 µM; in assay [9], 17.1 µM; in assay [10], 1.83 µM.
As for `N#CC(NC(=O)CCl)=C(Cl)Cl`, the GI50 in assay [1] is 2.16 µM; in assay [2], 1.55 µM; in [3], 1.76 µM; in assay [4], 1.74 µM; in assay [5] it was 1.49 µM; in assay [6] it was 1.02 µM. Further, the GI50 in assay [7] is 2.59 µM; in [8] it was 1.69 µM; in [9], 1.57 µM; in assay [10], 1.57 µM. In addition, the TGI in assay [1] was determined as 5.24 µM; in assay [2], 3.09 µM; in assay [3], 3.44 µM; in [4], 3.4 µM; in [5] it was 3.02 µM; in [6], 3.7 µM. Also, the TGI was found to be 6.56 µM in assay [7], 3.14 µM in assay [8], 3.1 µM in assay [9] and 3.27 µM in assay [10].
Turning to `C=C(Cl)[C@@](Cl)(CBr)CC[C@@H](Br)C(C)(C)Cl`, the GI50 was 0.552 µM in assay [1]; 1.28 µM in assay [3]; 0.228 µM in assay [4]; 1.22 µM in [8]; 19.5 µM in assay [10]. For the same compound, the TGI was 2.72 µM and 1.85 µM in assay [1]; 6.2 µM and 1.83 µM in [2]; 4.48 µM and 0.635 µM in [3]; 0.545 µM and 0.679 µM in assay [4]; 42.9 µM in [5]; 1.25 µM and 0.635 µM in assay [6]. Besides, the TGI was 31 µM and 50.8 µM in [7]; 4.9 µM and 1.06 µM in assay [8]; 39.4 µM and 34.3 µM in [9]; > 100 µM and 21.3 µM in assay [10].
For `COc1ccc(/C=C/C(C)=N/OCC(=O)Nc2ccc(Cl)cc2)cc1`, the GI50 is 3.69 µM in assay [1]; 3.4 µM in assay [2]; 3.87 µM in assay [3]; 7.74 µM in assay [4]; 4.22 µM in assay [5]; 1.99 µM in assay [6]. The GI50 in assay [7] is 3.38 µM; in assay [8], 2.29 µM; in assay [9] it was 2.63 µM; in assay [10], 2.36 µM. For the same compound, the TGI stood at 13.5 µM in [1]; 22.2 µM in assay [2]; 18.2 µM in assay [3]; 38.9 µM in assay [4]; 23.3 µM in assay [5]; 9.39 µM in assay [6]. In addition, the TGI was found to be 26.7 µM in assay [7], 27 µM in [8], 15.5 µM in assay [9] and 7.98 µM in [10].
Regarding `NC(=O)c1ncn(C2OC(CO)C(O)C2O)c1N` (stereo not given), the GI50 in assay [1], in assay [2], in assay [3], in [4], in [5] and in assay [6] was over 100 µM throughout. The GI50 in assay [7], in assay [8], in assay [9] and in assay [10] was over 100 µM in each case. Also, the TGI in assay [1], in assay [2], in [3], in assay [4], in assay [5] and in [6] was over 100 µM each time. Further, the TGI in assay [7], in [8], in assay [9] and in assay [10] was over 100 µM each time.
Consider `Cn1ccnc1C(=O)/C=C/c1ccc(C(=O)Nc2c(F)c(F)c(F)c(F)c2F)cc1`, for which the GI50 in assay [1] is 2.18 µM; in assay [2], 3.1 µM; in assay [3], 1.77 µM; in assay [4], 1.76 µM; in assay [5], 2.1 µM; in assay [6], 1.17 µM. Also, the GI50 was 2.7 µM in assay [7], 1.53 µM in assay [8], 1.5 µM in assay [9] and 1.79 µM in [10]. Moreover, the TGI in [1] is 5.6 µM; in [2] it was 10.4 µM; in [3], 3.89 µM; in assay [4], 3.69 µM; in [5] it was 5.91 µM; in assay [6] it was 2.48 µM. For the same compound, the TGI in assay [7] turned out to be 8.49 µM; in [8], 3.11 µM; in assay [9], 2.87 µM; in assay [10], 3.28 µM.
With `CNCc1cccc2c1OCCOCCOCCC(C)S(=O)(=O)c1ccc(cc1)-c1cnc(N)c(n1)C(=O)N2` (stereo not given), the GI50 in assay [1] was 2.37 µM; in assay [2], 1.91 µM; in [3] it was 1.44 µM; in assay [4], 1.37 µM; in assay [5] it was 1.59 µM; in assay [6] it was 1.18 µM. The GI50 in [7] was 1.98 µM; in assay [8], 0.365 µM; in assay [9] it was 1.81 µM; in assay [10] it was 2.05 µM. Further, the TGI in assay [1] came to 6.36 µM; in [2], 4.55 µM; in assay [3], 8.99 µM; in assay [4] it was 8.25 µM; in [5], 3.13 µM; in assay [6], 3.35 µM. In addition, the TGI in assay [7] turned out to be 5.46 µM; in [8], 2.22 µM; in assay [9], 5.41 µM; in assay [10], 4.58 µM.
As to `CN(C)c1ccc(C2CC(C)(O)Oc3cc4c(cc32)OCO4)cc1` (stereo not given), the TGI is 63.8 µM in [1]; over 100 µM in assay [2]; 76.1 µM in assay [3]; over 100 µM in assay [4]; over 100 µM in assay [5]; over 100 µM in [6]. The TGI in assay [7], in [8], in [9] and in assay [10] was over 100 µM in each case.
